# Assay results as given in PubChem BioAssay (NCI).
#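 1) Cells in 96-well plates. 2) Compound, 48 h, 5 concentrations. 3) Linear interpolation between surrounding doses. 4) Unreached endpoint = highest concentration. At the TGI there is no net growth.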
# Key:
# Test in all cases: growth of human tumour cells (NCI), 48 h
# 786-0 renal = test system: 786-0 renal
# A498 renal = test system: A498 renal
# A549 NSCLC = test system: A549 NSCLC
# ACHN renal = test system: ACHN renal
# CAKI-1 renal = test system: CAKI-1 renal
# CCRF-CEM leukemia = test system: CCRF-CEM leukemia
# COLO 205 colon = test system: COLO 205 colon
# DLD-1 colon = test system: DLD-1 colon
# DMS 114 small cell lung = test system: DMS 114 small cell lung
# DMS 273 small cell lung = test system: DMS 273 small cell lung
# HCC-2998 colon = test system: HCC-2998 colon
# HCT-116 colon = test system: HCT-116 colon
# HCT-15 colon = test system: HCT-15 colon
# HL-60(TB) leukemia = test system: HL-60(TB) leukemia
# HOP-18 NSCLC = test system: HOP-18 NSCLC
# HOP-62 NSCLC = test system: HOP-62 NSCLC
# HOP-92 NSCLC = test system: HOP-92 NSCLC
# HT29 colon = test system: HT29 colon
# IGROV1 ovarian = test system: IGROV1 ovarian
# K-562 leukemia = test system: K-562 leukemia
# KM12 colon = test system: KM12 colon
# KM20L2 colon = test system: KM20L2 colon
# LOX IMVI melanoma = test system: LOX IMVI melanoma
# LXFL 529 NSCLC = test system: LXFL 529 NSCLC
# M14 melanoma = test system: M14 melanoma
# M19-MEL melanoma = test system: M19-MEL melanoma
# MALME-3M melanoma = test system: MALME-3M melanoma
# MOLT-4 leukemia = test system: MOLT-4 leukemia
# NCI-H226 lung = test system: NCI-H226 lung
# NCI-H23 lung = test system: NCI-H23 lung
# NCI-H460 lung = test system: NCI-H460 lung
# NCI-H522 lung = test system: NCI-H522 lung
# OVCAR-3 ovarian = test system: OVCAR-3 ovarian
# OVCAR-4 ovarian = test system: OVCAR-4 ovarian
# OVCAR-5 ovarian = test system: OVCAR-5 ovarian
# OVCAR-8 ovarian = test system: OVCAR-8 ovarian
# RPMI-8226 leukemia = test system: RPMI-8226 leukemia
# RXF 393 renal = test system: RXF 393 renal
# RXF-631 renal = test system: RXF-631 renal
# SF-268 CNS = test system: SF-268 CNS
# SF-295 CNS = test system: SF-295 CNS
# SF-539 CNS = test system: SF-539 CNS
# SK-MEL-28 melanoma = test system: SK-MEL-28 melanoma
# SK-MEL-5 melanoma = test system: SK-MEL-5 melanoma
# SK-OV-3 ovarian = test system: SK-OV-3 ovarian
# SN12C renal = test system: SN12C renal
# SNB-19 CNS = test system: SNB-19 CNS
# SNB-75 CNS = test system: SNB-75 CNS
# SNB-78 CNS = test system: SNB-78 CNS
# SR leukemia = test system: SR leukemia
# SW-620 colon = test system: SW-620 colon
# TK-10 renal = test system: TK-10 renal
# U251 CNS = test system: U251 CNS
# UACC-257 melanoma = test system: UACC-257 melanoma
# UACC-62 melanoma = test system: UACC-62 melanoma
# UO-31 renal = test system: UO-31 renal
# EKVX NSCLC = test system: EKVX NSCLC
# SK-MEL-2 melanoma = test system: SK-MEL-2 melanoma
# XF 498 CNS = test system: XF 498 CNS
compound,measurement,setting,value
COC1(OC)CC2C(=O)N(Cc3ccccc3)C1C(S(=O)(=O)c1ccccc1)C2S(=O)(=O)c1ccccc1 (centres undefined),TGI,786-0 renal,30.7 µM
same,TGI,A498 renal,58.2 µM
same,TGI,A549 NSCLC,75 µM
same,TGI,ACHN renal,22.4 µM
same,TGI,CAKI-1 renal,26.9 µM
same,TGI,CCRF-CEM leukemia,13.7 µM
same,TGI,COLO 205 colon,16.9 µM
same,TGI,DLD-1 colon,13.3 µM
same,TGI,DMS 114 small cell lung,16 µM
same,TGI,DMS 273 small cell lung,27.7 µM
same,TGI,HCC-2998 colon,31.1 µM
same,TGI,HCT-116 colon,29.9 µM
same,TGI,HCT-15 colon,14.8 µM
same,TGI,HL-60(TB) leukemia,17.3 µM
same,TGI,HOP-18 NSCLC,31 µM
same,TGI,HOP-62 NSCLC,> 100 µM
same,TGI,HOP-92 NSCLC,34 µM
same,TGI,HT29 colon,28.4 µM
same,TGI,IGROV1 ovarian,32.3 µM
same,TGI,K-562 leukemia,46.2 µM
same,TGI,KM12 colon,34.1 µM
same,TGI,KM20L2 colon,31.4 µM
same,TGI,LOX IMVI melanoma,21.8 µM
same,TGI,LXFL 529 NSCLC,12.1 µM
same,TGI,M14 melanoma,28.5 µM
same,TGI,M19-MEL melanoma,23.8 µM
same,TGI,MALME-3M melanoma,29.3 µM
same,TGI,MOLT-4 leukemia,46.6 µM
same,TGI,NCI-H226 lung,35.2 µM
same,TGI,NCI-H23 lung,28.1 µM
same,TGI,NCI-H460 lung,82.7 µM
same,TGI,NCI-H522 lung,5.12 µM
same,TGI,OVCAR-3 ovarian,22.9 µM
same,TGI,OVCAR-4 ovarian,28.6 µM
same,TGI,OVCAR-5 ovarian,34.1 µM
same,TGI,OVCAR-8 ovarian,23.4 µM
same,TGI,RPMI-8226 leukemia,45.5 µM
same,TGI,RXF 393 renal,25.6 µM
same,TGI,RXF-631 renal,32.6 µM
same,TGI,SF-268 CNS,29.3 µM
same,TGI,SF-295 CNS,> 100 µM
same,TGI,SF-539 CNS,27.3 µM
same,TGI,SK-MEL-28 melanoma,26.8 µM
same,TGI,SK-MEL-5 melanoma,34 µM
same,TGI,SK-OV-3 ovarian,54.2 µM
same,TGI,SN12C renal,25.4 µM
same,TGI,SNB-19 CNS,> 100 µM
same,TGI,SNB-75 CNS,27.6 µM
same,TGI,SNB-78 CNS,39.1 µM
same,TGI,SR leukemia,85.4 µM
same,TGI,SW-620 colon,13.6 µM
same,TGI,TK-10 renal,28.5 µM
same,TGI,U251 CNS,27.2 µM
same,TGI,UACC-257 melanoma,21.1 µM
same,TGI,UACC-62 melanoma,26.2 µM
same,TGI,UO-31 renal,31.3 µM
NNC(=S)N/N=C(\CC1OC(=O)c2ccccc21)c1ccccc1O (centres undefined),TGI,786-0 renal,> 100 µM
same,TGI,A498 renal,95.4 µM
same,TGI,A549 NSCLC,> 100 µM
same,TGI,ACHN renal,> 100 µM
same,TGI,CAKI-1 renal,> 100 µM
same,TGI,CCRF-CEM leukemia,> 100 µM
same,TGI,COLO 205 colon,> 100 µM
same,TGI,DLD-1 colon,> 100 µM
same,TGI,DMS 114 small cell lung,> 100 µM
same,TGI,DMS 273 small cell lung,> 100 µM
same,TGI,EKVX NSCLC,> 100 µM
same,TGI,HCC-2998 colon,> 100 µM
same,TGI,HCT-116 colon,> 100 µM
same,TGI,HCT-15 colon,> 100 µM
same,TGI,HL-60(TB) leukemia,> 100 µM
same,TGI,HOP-18 NSCLC,> 100 µM
same,TGI,HOP-62 NSCLC,> 100 µM
same,TGI,HOP-92 NSCLC,> 100 µM
same,TGI,HT29 colon,> 100 µM
same,TGI,IGROV1 ovarian,> 100 µM
same,TGI,K-562 leukemia,> 100 µM
same,TGI,KM12 colon,> 100 µM
same,TGI,KM20L2 colon,> 100 µM
same,TGI,LOX IMVI melanoma,32.6 µM
same,TGI,LXFL 529 NSCLC,> 100 µM
same,TGI,M14 melanoma,> 100 µM
same,TGI,M19-MEL melanoma,> 100 µM
same,TGI,MALME-3M melanoma,> 100 µM
same,TGI,MOLT-4 leukemia,75.6 µM
same,TGI,NCI-H226 lung,95.4 µM
same,TGI,NCI-H23 lung,> 100 µM
same,TGI,NCI-H460 lung,> 100 µM
same,TGI,NCI-H522 lung,83.8 µM
same,TGI,OVCAR-3 ovarian,> 100 µM
same,TGI,OVCAR-4 ovarian,> 100 µM
same,TGI,OVCAR-5 ovarian,33.9 µM
same,TGI,OVCAR-8 ovarian,> 100 µM
same,TGI,RXF 393 renal,77.3 µM
same,TGI,RXF-631 renal,> 100 µM
same,TGI,SF-268 CNS,> 100 µM
same,TGI,SF-295 CNS,40.4 µM
same,TGI,SF-539 CNS,43.7 µM
same,TGI,SK-MEL-2 melanoma,> 100 µM
same,TGI,SK-MEL-28 melanoma,> 100 µM
same,TGI,SK-MEL-5 melanoma,> 100 µM
same,TGI,SK-OV-3 ovarian,> 100 µM
same,TGI,SN12C renal,> 100 µM
same,TGI,SNB-19 CNS,> 100 µM
same,TGI,SNB-75 CNS,86.1 µM
same,TGI,SNB-78 CNS,> 100 µM
same,TGI,SR leukemia,46.4 µM
same,TGI,SW-620 colon,> 100 µM
same,TGI,TK-10 renal,> 100 µM
same,TGI,U251 CNS,56.2 µM
same,TGI,UACC-257 melanoma,> 100 µM
same,TGI,UACC-62 melanoma,> 100 µM
same,TGI,UO-31 renal,> 100 µM
same,TGI,XF 498 CNS,> 100 µM
